Results from patent publication US20220186190A1, “MODELING ONCOLOGY ON DEMAND” (The Board of Trustees of the University of Illinois, priority 2019, published 2022).

What was measured:
[1] = tested on: OCM HCC cell lines; experiment: MTT chemotherapeutic screening, OCM HCC cell line; format: cell-based, pig; details: 72 hours exposure
Procedure: (§1) Cells (1×1O^4 cells/well) were cultured in 200 ? DMEM+10% FBS overnight in 96 well plates. The following day, culture media was replaced with fresh media supplemented with one of 10 varying concentrations of each chemotherapeutic compound. Sorafenib, doxorubicin, mitomycin C, and 5-Fluorouracil (5-FU) were prepared from a stock solution in a 10-point serial dilution curve, in DMSO, and added at 1:100 to culture media (final concentration of DMSO was 1% for all conditions). As platinum complexes are inactivated by DMSO, cisplatin stock solution was 3.33 mM in water and the stock was used to prepare all dilutions. Sorafenib and mitomycin C were tested from 0.5-100 μM, doxorubicin from 0.1-20 μM, cisplatin from 1-200 μM, and 5-FU from 1-500 μM in order to assay concentrations that are relevant for clinically used dosages and that allow for calculation of the half maximal inhibitory concentration (IC50) for each compound. 96 well plates with each cell line and chemotherapeutic concentration in triplicate were prepared for time points 0, 24, 48, and 72 hours to observe a dose response overtime. For the 3-(4,5-dimethylthiazol-2-yl)-2,5-diphenyltetrazolium bromide (MTT) assay, 100 ? of fresh media was replaced at each time point, 10 ? of 5 mg/ml MTT added to each well and incubated for 4 hours at 37° C. 100 ? for an SDS/HCl solution (1 g SDS/10 ml 0.1 HCl) was then added to solubilize the resulting formazan dye and the plates incubated an additional 4 h at 37° C. Absorbance at 570 nm was read using a BioTek 800 TS Absorbance Reader (BioTek). Results are expressed in percentage, relative to the absorbance values for each cell line at time 0.
(§2) OCM and human HCC cell lines display similar sensitivities to four FDA approved cytostatic (sorafenib) and cytotoxic (doxorubicin, cisplatin, mitomycin C) chemotherapeutic agents used to treat HCC clinically, either systemically or via transarterial chemoembolization (TACE), and one shown to be ineffective (5-FU) in clinical settings.

[2] = tested on: HepG2; experiment: MTT chemotherapeutic screening, human HCC cell line HepG2; format: cell-based; details: 72 hours exposure
Procedure: as §1, §2

[3] = tested on: Hepal-6; experiment: MTT chemotherapeutic screening, murine HCC cell line Hepal-6; format: cell-based; details: for IC50: Hepal-6, MTT, 72 hours exposure
Procedure: as §1, §2

[4] = tested on: Oncopig soft tissue sarcoma tumor cells; experiment: In vitro partitioning and conversion of DON prodrugs to DON in Oncopig soft tissue sarcoma tumor cells; format: in vitro ADME, pig; details: FIGS. 12A-12D
Source text: FIGS. 12A-12D are graphs showing in vitro partitioning and conversion of 6-diazo-5-oxo-1-norleucine (DON) prodrugs to DON in Oncopig soft tissue sarcoma tumor cells vs. plasma. […] However, when delivered as a prodrug (FIGS. 12B-12D), the level of active compound (DON, y-axis) is much higher in the cells than the cell supernatant.
(§3) OCM soft-tissue sarcoma cell lines were used to assess tumor cell specific uptake and conversion of 6-Diazo-5 -oxo-1-norleucine (DON) prodrugs. […] In addition, in vivo investigation of tumor specific uptake and temporal PK of systemically administered prodrugs in Oncopigs bearing SQ soft-tissue sarcomas validated the capability to employ the tumor-bearing OCM for chemotherapy drug pharmacologic studies (FIGS. 13A and 13B and Table 8).

[5] = In vivo PK and tumor specific uptake of systemically administered DON prodrugs in Oncopigs bearing SQ soft-tissue sarcomas; parameters: species or system pig; details: for AUC / Cmax: systemically administered prodrug
Source text: as §3

Structure (SMILES) | IC50 ([1]; Sus scrofa) | IC50 ([2]; Homo sapiens) | IC50 ([3]; Mus musculus) | IC50 [1] | IC50 [2] | IC50 [3] | other results
CNC(=O)c1cc(Oc2ccc(NC(=O)Nc3ccc(Cl)c(C(F)(F)F)c3)cc2)ccn1 [Sorafenib] | 10.4 µM | 8.86 µM | 4.98 µM |  |  |  | 
N.N.[Cl][Pt][Cl] [Cisplatin, cisplatin] |  |  |  | 5.38 µM | 5.6 µM | 2.16 µM | 
O=c1[nH]cc(F)c(=O)[nH]1 [5-FU, 5-Fluorouracil] | 14.5 µM | 18.3 µM | 1.82 µM |  |  |  | higher susceptibility of murine HCC lines versus OCM and human lines ([3]; Hepal-6 compared with OCM and human HCC lines): 10 fold
[N-]=[N+]=CC(=O)CC[C@H](N)C(=O)O [DON, 6-diazo-5-oxo-1-norleucine] |  |  |  |  |  |  | level of DON in cells vs. cell supernatant [4]: high levels are observed in the cell supernatant, with small amounts entering the cells; Tumor:Plasma AUC ratio [5]: 1.5; selective in vivo partitioning (tumor vs. plasma) ([5]; FIGS. 13A and 13B): selective in vivo partitioning of DON to tumor cells; AUC ([5]; Plasma): 2852 h*pmol/ml or g; Cmax ([5]; Plasma): 530 pmol/ml or g; AUC ([5]; Tumor): 4238 h*pmol/ml or g; Cmax ([5]; Tumor): 1019 pmol/ml or g
COc1cccc2c1C(=O)c1c(O)c3c(c(O)c1C2=O)C[C@@](O)(C(=O)CO)C[C@@H]3O[C@H]1C[C@H](N)[C@H](O)[C@H](C)O1 [Doxorubicin, doxorubicin] | 0.08 µM | 0.23 µM | 0.53 µM |  |  |  | 
CO[C@@]12[C@H](COC(N)=O)C3=C(C(=O)C(C)=C(N)C3=O)N1C[C@@H]1N[C@@H]12 [Mitomycin C, mitomycin C] |  |  |  | 0.48 µM | 0.57 µM | 0.61 µM | 
